From ChEMBL document CHEMBL1201862, “PubChem BioAssay data set” (2004)
Activity calls are given as the source filed them.

Key:
[1] = biological target: Muscarinic acetylcholine receptor M5 (Homo sapiens, UniProt P08912); assay: inhibition of ACh-evoked human M5 signalling – cell-based, CHO-K1 hM5, Fluo-4 calcium flux, ACh EC80, dose response (AID 743110); format: functional
[2] = inhibitors of TRPM1-promoter reporter in SK-MEL-5 – cell-based, luciferase, dry powder, set 9, MITF inhibitor project, dose response (AID 651588); format: functional
[3] = cytotoxicity in MITF-independent A375 cells – cell-based, CellTiter-Glo luminescence, dry powder, set 4, counter-screen for MITF inhibitor project, dose response (AID 624364); format: functional; details: A-375;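 further: A375 melanoma cells are MITF independent so this is a counter screen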
[4] = viability loss in MITF-independent A375 cells – cell-based, CellTiter-Glo luminescence, dry powder, set 7, counter-screen for MITF inhibitor project, dose response (AID 624490); format: functional; details: A-375
[5] = MITF Orthogonal Assay: MALME3 CTG Assay Measured in Cell-Based System Using Plate Reader - 2084-04_Inhibitor_Dose_DryPowder_Activity_Set6.; format: functional; details: MALME-3
[6] = growth inhibition of SK-MEL-5 melanoma cells – cell-based, CellTiter-Glo luminescence, dry powder, set 8, orthogonal assay for MITF inhibitor project, dose response (AID 651586); format: functional
[7] = growth inhibition of MALME3 cells – cell-based, CellTiter-Glo luminescence, dry powder, set 5, orthogonal assay for MITF inhibitor project, dose response (AID 651584); format: functional; details: MALME-3
[8] = cytotoxicity in melanoma parental cells – cell-based, CellTiter-Glo, dry powder, set 6, MITF inhibitor project, dose response (AID 624429); format: functional; details: SK-MEL-5
[9] = MITF Orthogonal Assay: SK-MEL-5 CTG Assay Measured in Cell-Based System Using Plate Reader - 2084-02_Inhibitor_Dose_DryPowder_Activity_Set5.; format: functional
[10] = MITF Measured in Cell-Based System Using Plate Reader - 2084-01_Inhibitor_Dose_DryPowder_Activity_Set6.; format: functional
[11] = MITF Measured in Cell-Based System Using Plate Reader - 2084-01_Inhibitor_Dose_DryPowder_Activity_Set7.; format: functional
[12] = melanocyte viability loss, MITF-dependent cells, cell-based, plate reader, dry powder, cytotoxicity control, dose response (AID 651920); format: functional
[13] = HEK293T viability loss – cell-based, ATP luminescence, dry powder, Set6, cytotoxicity control, dose response (AID 743142); format: functional; details: HEK293
[14] = viability loss in A549 lung cancer cells – cell-based, CellTiter-Glo luminescence, dry powder, set 3, cytotoxicity control, dose response (AID 743146); format: functional
[15] = biological target: T1, Potassium channel subfamily K member 9 (Homo sapiens, UniProt Q9NPC2); assay: TASK3 channel blockers, electrophysiology – cell-based, automated electrophysiology, selectivity assay for TASK1 (KCNK3) inhibitor project, SAR follow-up (AID 652210); format: functional
T1 sequence (Q9NPC2 whole entry): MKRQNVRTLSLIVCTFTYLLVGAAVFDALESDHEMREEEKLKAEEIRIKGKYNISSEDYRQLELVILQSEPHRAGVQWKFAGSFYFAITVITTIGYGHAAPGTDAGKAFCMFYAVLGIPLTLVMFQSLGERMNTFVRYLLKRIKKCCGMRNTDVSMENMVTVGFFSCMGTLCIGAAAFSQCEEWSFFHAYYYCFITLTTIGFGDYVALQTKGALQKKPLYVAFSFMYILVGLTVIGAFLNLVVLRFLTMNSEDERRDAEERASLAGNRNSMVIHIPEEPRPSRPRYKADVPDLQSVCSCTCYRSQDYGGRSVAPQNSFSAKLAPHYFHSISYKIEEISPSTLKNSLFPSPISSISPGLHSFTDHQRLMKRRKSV

[16] = biological target: T1, Potassium channel subfamily K member 9; assay: KCNK9 flux blockade, concentration-response – cell-based, FluxOR thallium flux, selectivity assay for TASK1 inhibitor project, SAR follow-up (AID 652211); format: functional;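 further: potency is for inhibitors of the channel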
[17] = biological target: Potassium channel subfamily K member 3 (Rattus norvegicus, UniProt O54912); assay: SAR analysis for the identification of selective inhibitors of the two-pore domain potassium channel TASK1(KCNK3):Automated Electrophysiology.; format: functional
Chain of Potassium channel subfamily K member 3 (Rattus norvegicus, UniProt O54912) (O54912 whole entry, the tested form may be a part): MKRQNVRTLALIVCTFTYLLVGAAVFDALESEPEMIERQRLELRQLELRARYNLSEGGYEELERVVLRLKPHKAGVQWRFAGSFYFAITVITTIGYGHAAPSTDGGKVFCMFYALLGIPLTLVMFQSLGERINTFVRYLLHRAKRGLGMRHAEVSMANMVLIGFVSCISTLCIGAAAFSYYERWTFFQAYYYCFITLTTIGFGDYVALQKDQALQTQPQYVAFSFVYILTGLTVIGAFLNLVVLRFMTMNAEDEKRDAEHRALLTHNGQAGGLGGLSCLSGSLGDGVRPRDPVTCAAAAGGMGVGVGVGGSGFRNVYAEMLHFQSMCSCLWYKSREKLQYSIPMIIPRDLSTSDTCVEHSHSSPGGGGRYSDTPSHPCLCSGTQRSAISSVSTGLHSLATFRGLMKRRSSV

[18] = biological target: Potassium channel subfamily K member 3 (Homo sapiens, UniProt O14649); assay: inhibition of human KCNK3 channel flux – CHO cells, FluxOR thallium flux, SAR follow-up (AID 652212); format: functional
Chain of Potassium channel subfamily K member 3 (Homo sapiens, UniProt O14649) (O14649 whole entry): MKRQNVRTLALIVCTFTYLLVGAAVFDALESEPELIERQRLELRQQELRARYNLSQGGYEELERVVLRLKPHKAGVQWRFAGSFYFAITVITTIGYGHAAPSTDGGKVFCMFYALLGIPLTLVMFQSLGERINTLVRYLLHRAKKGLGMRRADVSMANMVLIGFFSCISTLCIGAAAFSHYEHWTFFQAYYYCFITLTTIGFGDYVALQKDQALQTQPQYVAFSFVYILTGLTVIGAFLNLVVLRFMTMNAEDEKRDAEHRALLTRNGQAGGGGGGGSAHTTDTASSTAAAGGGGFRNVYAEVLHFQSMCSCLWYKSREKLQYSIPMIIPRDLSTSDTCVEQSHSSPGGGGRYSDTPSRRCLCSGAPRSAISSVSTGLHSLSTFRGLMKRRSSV

[19] = biological target: Metabotropic glutamate receptor 5 (Rattus norvegicus, UniProt P31424); assay: Identification of a glycine sulfonamide based non-MPEP site positive allosteric potentiator (PAM) of mGlu5 (calcium_assay).; format: functional
Chain of Metabotropic glutamate receptor 5 (P31424 whole entry): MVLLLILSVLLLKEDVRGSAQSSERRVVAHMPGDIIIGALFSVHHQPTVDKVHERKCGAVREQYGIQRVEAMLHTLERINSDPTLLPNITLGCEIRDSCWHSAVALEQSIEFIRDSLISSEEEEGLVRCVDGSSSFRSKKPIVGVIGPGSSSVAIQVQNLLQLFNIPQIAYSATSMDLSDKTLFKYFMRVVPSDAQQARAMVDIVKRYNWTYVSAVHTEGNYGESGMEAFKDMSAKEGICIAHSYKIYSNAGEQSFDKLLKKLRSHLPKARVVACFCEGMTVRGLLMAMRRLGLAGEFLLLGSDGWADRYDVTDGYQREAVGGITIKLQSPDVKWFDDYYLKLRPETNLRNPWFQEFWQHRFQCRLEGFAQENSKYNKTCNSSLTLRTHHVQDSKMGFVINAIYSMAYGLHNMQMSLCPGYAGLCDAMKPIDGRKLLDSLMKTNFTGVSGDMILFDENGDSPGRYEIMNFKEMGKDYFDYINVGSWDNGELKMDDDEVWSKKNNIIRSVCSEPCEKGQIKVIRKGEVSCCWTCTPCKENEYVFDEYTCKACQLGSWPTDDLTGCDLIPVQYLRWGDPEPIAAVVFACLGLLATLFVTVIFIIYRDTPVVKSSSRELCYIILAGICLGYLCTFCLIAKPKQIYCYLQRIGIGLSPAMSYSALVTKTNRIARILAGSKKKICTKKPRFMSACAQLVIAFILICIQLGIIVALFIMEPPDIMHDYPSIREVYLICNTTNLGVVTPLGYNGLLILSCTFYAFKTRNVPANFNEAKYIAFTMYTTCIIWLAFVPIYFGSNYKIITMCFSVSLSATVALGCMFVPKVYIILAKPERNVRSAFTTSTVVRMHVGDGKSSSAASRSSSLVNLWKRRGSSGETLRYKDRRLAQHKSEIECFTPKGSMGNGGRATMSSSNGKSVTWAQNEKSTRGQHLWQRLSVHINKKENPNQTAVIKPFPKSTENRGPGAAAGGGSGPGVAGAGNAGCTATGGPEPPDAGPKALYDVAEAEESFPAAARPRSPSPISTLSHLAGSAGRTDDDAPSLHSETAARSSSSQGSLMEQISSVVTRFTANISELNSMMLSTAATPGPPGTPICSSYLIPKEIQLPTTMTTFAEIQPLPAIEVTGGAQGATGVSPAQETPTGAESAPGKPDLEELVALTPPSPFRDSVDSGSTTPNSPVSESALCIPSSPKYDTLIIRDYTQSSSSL

[20] = biological target: Metabotropic glutamate receptor 3 (Rattus norvegicus, UniProt P31422); assay: inhibitors of rat mGlu3 Galpha15 signaling – TREx293 cells, calcium flux, mGlu3 NAM project, dose response (AID 651840); format: functional
Chain of Metabotropic glutamate receptor 3 (P31422 whole entry): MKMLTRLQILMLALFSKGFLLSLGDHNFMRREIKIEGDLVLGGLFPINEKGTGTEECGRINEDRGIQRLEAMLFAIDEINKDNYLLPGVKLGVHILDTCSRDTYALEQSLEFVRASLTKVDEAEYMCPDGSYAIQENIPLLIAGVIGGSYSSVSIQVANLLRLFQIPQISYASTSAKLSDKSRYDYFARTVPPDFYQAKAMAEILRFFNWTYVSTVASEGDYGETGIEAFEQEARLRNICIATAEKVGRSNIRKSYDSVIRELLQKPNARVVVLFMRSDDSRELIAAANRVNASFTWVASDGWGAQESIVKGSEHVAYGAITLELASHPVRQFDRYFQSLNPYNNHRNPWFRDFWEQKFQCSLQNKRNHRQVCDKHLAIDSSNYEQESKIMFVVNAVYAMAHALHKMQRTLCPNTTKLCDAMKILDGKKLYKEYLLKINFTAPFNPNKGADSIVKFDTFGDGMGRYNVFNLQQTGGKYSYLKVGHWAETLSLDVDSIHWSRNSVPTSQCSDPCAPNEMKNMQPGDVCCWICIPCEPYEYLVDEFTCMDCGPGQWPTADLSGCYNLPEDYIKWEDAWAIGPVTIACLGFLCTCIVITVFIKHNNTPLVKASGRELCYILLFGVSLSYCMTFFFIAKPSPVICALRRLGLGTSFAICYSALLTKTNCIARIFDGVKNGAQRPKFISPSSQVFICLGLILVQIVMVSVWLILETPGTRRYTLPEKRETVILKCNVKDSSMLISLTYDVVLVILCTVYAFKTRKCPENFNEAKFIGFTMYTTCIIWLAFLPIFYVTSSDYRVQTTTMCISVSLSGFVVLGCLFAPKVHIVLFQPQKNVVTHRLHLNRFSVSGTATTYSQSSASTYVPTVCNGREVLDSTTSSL

[21] = A Cell-Based Confirmatory Screen for Compounds that Inhibit VEEV, TC-83 (8).; format: functional
[22] = Counterscreen for […] of the human trace amine associated receptor 1 (TAAR1): Fluorescence-based cell-based high throughput dose response assay to identify nonselective Ga16 agonists.; format: functional
[23] = biological target: T2, Trace amine-associated receptor 1 (Homo sapiens, UniProt Q96RJ0); assay: Fluorescence-based cell-based high throughput dose response assay to identify antagonists of the human trace amine associated receptor 1 (TAAR1).; format: functional
T2 sequence (Q96RJ0 whole entry): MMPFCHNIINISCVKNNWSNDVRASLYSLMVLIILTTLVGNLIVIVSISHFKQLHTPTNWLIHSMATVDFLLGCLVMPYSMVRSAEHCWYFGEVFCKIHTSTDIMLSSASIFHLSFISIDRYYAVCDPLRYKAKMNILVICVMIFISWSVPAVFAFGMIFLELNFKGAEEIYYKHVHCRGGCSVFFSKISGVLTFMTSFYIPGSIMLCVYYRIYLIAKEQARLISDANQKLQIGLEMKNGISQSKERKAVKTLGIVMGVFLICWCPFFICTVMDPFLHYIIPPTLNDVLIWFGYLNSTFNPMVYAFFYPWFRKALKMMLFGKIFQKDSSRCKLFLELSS

[24] = Counterscreen for antagonists of the human trace amine associated receptor 1 (hTAAR1): Fluorescence-based cell-based high throughput dose response assay to identify nonselective Ga16 antagonists.; format: functional
[25] = biological target: T2, Trace amine-associated receptor 1; assay: Counterscreen for antagonists of the human trace amine associated receptor 1 (hTAAR1): Fluorescence-based cell-based high throughput dose response assay to identify TAAR1 Agonists.; format: functional
[26] = biological target: SUMO-activating enzyme (Homo sapiens, UniProt Q9UBT2); assay: blockers of UBC9-mediated SUMO conjugation – biochemical, AlphaScreen, SUMOylation inhibitor project, confirmation (AID 2018); format: functional
Chain of SUMO-activating enzyme (Q9UBE0 whole entry): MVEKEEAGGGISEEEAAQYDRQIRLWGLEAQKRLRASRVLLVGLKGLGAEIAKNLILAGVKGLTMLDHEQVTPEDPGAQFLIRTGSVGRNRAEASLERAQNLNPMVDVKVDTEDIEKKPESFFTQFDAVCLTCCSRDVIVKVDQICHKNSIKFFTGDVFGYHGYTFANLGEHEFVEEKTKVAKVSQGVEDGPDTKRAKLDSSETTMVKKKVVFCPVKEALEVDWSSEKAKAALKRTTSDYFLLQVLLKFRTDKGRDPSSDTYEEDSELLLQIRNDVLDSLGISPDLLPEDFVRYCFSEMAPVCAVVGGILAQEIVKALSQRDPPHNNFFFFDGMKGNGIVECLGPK
Chain of SUMO-activating enzyme (Q9UBT2 whole entry): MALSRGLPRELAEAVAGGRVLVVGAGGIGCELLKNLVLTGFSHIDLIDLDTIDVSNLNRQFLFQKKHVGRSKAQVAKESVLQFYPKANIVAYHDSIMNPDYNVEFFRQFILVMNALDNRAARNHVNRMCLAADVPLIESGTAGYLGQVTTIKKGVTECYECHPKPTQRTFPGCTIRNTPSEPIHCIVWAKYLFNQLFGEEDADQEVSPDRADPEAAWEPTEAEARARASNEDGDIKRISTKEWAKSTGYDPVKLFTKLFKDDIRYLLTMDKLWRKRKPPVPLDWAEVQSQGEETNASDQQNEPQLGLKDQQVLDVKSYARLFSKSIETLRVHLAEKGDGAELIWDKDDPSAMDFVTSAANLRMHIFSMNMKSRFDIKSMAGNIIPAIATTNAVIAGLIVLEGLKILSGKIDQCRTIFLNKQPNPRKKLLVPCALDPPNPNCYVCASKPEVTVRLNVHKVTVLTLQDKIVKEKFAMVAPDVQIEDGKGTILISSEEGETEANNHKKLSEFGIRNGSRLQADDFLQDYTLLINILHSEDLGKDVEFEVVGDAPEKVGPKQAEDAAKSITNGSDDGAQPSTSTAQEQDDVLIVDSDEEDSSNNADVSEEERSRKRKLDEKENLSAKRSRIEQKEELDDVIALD

[27] = cells; details: A549

Chain of Muscarinic acetylcholine receptor M5 (P08912 whole entry): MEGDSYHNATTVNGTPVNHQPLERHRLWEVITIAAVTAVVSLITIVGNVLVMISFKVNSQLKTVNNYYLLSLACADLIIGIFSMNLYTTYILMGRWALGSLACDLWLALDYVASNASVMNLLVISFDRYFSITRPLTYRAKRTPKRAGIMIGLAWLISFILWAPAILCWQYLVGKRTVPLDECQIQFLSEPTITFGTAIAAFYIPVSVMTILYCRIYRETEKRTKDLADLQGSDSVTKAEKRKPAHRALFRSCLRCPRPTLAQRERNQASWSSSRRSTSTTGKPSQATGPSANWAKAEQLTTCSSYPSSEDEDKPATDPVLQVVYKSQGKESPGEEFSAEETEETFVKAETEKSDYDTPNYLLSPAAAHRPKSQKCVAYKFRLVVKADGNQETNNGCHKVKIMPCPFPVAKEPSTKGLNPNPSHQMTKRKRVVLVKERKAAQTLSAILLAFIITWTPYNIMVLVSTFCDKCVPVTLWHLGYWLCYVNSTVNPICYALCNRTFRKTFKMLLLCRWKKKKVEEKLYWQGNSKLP

In the case of `COC(=O)c1cccc(OCc2cc(C(=O)N(C)C(C)c3ccccn3)no2)c1` (configuration not stated), the IC50 [1] is reported as 11.1 µM (active).

In the case of `O=C1C=C(NS(=O)(=O)c2ccc(Br)cc2)C(=O)c2ccccc21`, the AC50 [2] is reported as 18.8 µM (active), the AC50 [3] is reported as > 70 µM (inactive) and the AC50 [4] is reported as > 70 µM (inactive). The AC50 [5] was 24.4 µM (active), the AC50 [6] was 11.8 µM (active) and the AC50 [7] was 24.4 µM (active). For the same compound, the AC50 [8] was 11.2 µM (active), the AC50 [9] was 13.1 µM (active) and the AC50 [10] was 6.37 µM (active). The AC50 [11] was 7.45 µM (active) and the AC50 [12] was 14.5 µM (active).

With `Cc1ccc(C(=O)NCCC(=O)N[C@@H]2CCCc3ccccc32)cc1` the AC50 [13] was 6.22 µM (active) and the AC50 [14] was > 52 µM (inactive).

For `CCOc1ccccc1NC(=O)c1cccc(NC(=O)c2ccccc2)c1`, the IC50 [15] was 2.14 µM (active), the IC50 [16] was 1.43 µM (active) and the IC50 [17] was 60 nM (active). The IC50 [18] was 121 nM (active).

In the case of `CC(C(=O)Nc1ccncc1)N(c1ccccc1Cl)S(C)(=O)=O` (configuration not stated), the EC50 [19] is reported as > 30 µM (inactive).

Compound `COc1ccc(C#Cc2ccc(C(=O)N3CCCC(=O)C3)cc2)cc1` has an IC50 [20] of 2710 nM.

For `CCN1CCN(C(c2nc3ncc([N+](=O)[O-])cc3c(=O)n2-c2ccccc2)C(c2nc3ncc([N+](=O)[O-])cc3c(=O)n2-c2ccccc2)N2CCN(CC)CC2)CC1` (configuration not stated), the IC50 [21] was 6.57 µM (active).

For `CCCC(=O)Nc1ccc(-c2csc(N/N=C\c3ccncc3)n2)cc1`, the EC50 [22] was > 29.9 µM (inactive), the IC50 [23] was 9.3 µM (active) and the IC50 [24] was > 29.9 µM (inactive). The EC50 [25] was > 29.9 µM (inactive).

With `Cn1cccc1/C=N/NC(=O)c1sc2cc(Cl)ccc2c1Cl` the IC50 [26] was > 100 µM (inactive) and the AC50 [27] was 43.7 µM (active).
